{
  "source": "paper PMC6597546",
  "about": "“Identification of a potent benzoxaborole drug candidate for treating cryptosporidiosis” (Nature Communications, 2019)",
  "key": {"[1]": {"test_system": "CYP450 (2B6, 1A2, 2C9, 2C19, 2D6, 3A4)", "assay": "CYP450 inhibition, 6 isoforms", "assay_type": "in vitro ADME", "details": "@ 10 µM"}, "[2]": {"test_system": "C. parvum (Bunch Grass Farms Iowa isolate)", "assay": "Time-kill curve assay in HCT-8 cells", "assay_type": "cell-based, Cryptosporidium parvum", "protocol": "The invasion assay, DNA replication assay, asexual to sexual stage conversion, and time-kill curve assays were performed using fluorescence microscopy to enumerate parasites and host cell nuclei. Staining protocols are individually described for each assay. Unless noted otherwise, the details of image acquisition were as follows. An inverted Nikon Eclipse Ti2000 microscope with an automated stage and Perfect Focus was used with NIS-Elements Advanced Research software (Nikon, USA, version 4.30.01) to image the wells. The microscope was programmed to focus on the center of each well and then take a 3 × 3 composite image per well using a 20 × (0.45 NA) objective. Images were exported as .tiff files and parasites and host nuclei counted using a custom macro on ImageJ (National Institutes of Health, version 1.52a). Data were analyzed using Microsoft Excel and GraphPad Prism (version 6.01). […] C. parvum Iowa isolate oocysts (Bunch Grass Farms, Deary, ID) were treated to induce excystation and added to >90% confluent HCT-8 cells in 384-well plates. […] The monolayers were then washed, fixed, and stained with Vicia villosa lectin and DAPI at the indicated time points, and imaged as for the C. parvum growth assay. Separate 384-well plates were used for each time point. Parasite numbers were normalized to host cell nucleus numbers and expressed as the percentage of host cells infected. Drug-induced parasite decay was isolated from the reduction in parasites over time that occurs spontaneously in the HCT-8 culture system by expressing the number of parasites as the percentage of the number of parasites present at each time point under control (DMSO-treated) conditions."}, "[3]": {"test_system": "C. parvum invasion of HCT-8 host cells", "assay": "HCT-8 host cell invasion assay", "assay_type": "cell-based, Cryptosporidium parvum", "details": "HCT-8 host cells, 3 h", "protocol": "The invasion assay, DNA replication assay, asexual to sexual stage conversion, and time-kill curve assays were performed using fluorescence microscopy to enumerate parasites and host cell nuclei. Staining protocols are individually described for each assay. Unless noted otherwise, the details of image acquisition were as follows. An inverted Nikon Eclipse Ti2000 microscope with an automated stage and Perfect Focus was used with NIS-Elements Advanced Research software (Nikon, USA, version 4.30.01) to image the wells. The microscope was programmed to focus on the center of each well and then take a 3 × 3 composite image per well using a 20 × (0.45 NA) objective. Images were exported as .tiff files and parasites and host nuclei counted using a custom macro on ImageJ (National Institutes of Health, version 1.52a). Data were analyzed using Microsoft Excel and GraphPad Prism (version 6.01).\nHost cell invasion was assayed by allowing C. parvum to invade host cell monolayers in the presence of compound, and enumerating parasites and host cells after just 3 h (i.e., before completion of a parasite division cycle)[38]. HCT-8 cells were grown in RPMI media supplemented with 120 U per mL penicillin and 120 μg per mL streptomycin and 10% heat inactivated fetal bovine serum (complete media) and C. parvum Iowa isolate oocysts from Bunch Grass Farms (Deary, ID) were used for infection. When cells reached a confluence of >99%, media was removed and replaced with 25 µL per well of fresh media containing twice the indicated concentrations of compounds and incubated for 1 h at 37 °C in a humidified CO2 incubator. In the meantime, oocysts were induced for excystation by first treating with 10 mM hydrochloric acid (diluted with distilled water) for 10 min at 37 °C followed by 2 mM sodium taurocholate (in phosphate buffered saline (PBS) with calcium and magnesium) for 10 min at 16 °C. Before and after each treatment, oocysts were spun down at 14,000 × g for 4.5 min and supernatant was removed. […]"}, "[4]": {"assay": "Plasma Protein Binding (bovine)", "assay_type": "in vitro ADME", "details": "read-out: Plasma Protein Binding (PPB) (converted)"}, "[5]": {"test_system": "Escherichia coli and Salmonella typhimurium", "assay": "AMES bacterial reverse mutation assay", "details": "five strains with and without S9, up to 5000 µg per plate", "protocol": "In vitro safety profiling studies were conducted by Ricerca Biosciences (Taipei, Taiwan) and WuXi AppTec (Suzhou, China). Ricerca performed a Lead Profiling and Adverse Reaction Enzyme panel of 109 off-target enzymes and receptors. This included the hERG K+ ion channel, which is associated with cardiac tachyarrhythmias, and used a radioligand binding competition format with 10 µM test compound for 1 h at 25 °C. For the enzyme and receptor panel, competitive inhibition at 10 µM of test compound was the most common assay format. The AMES bacterial reverse mutation assay detects point mutations in Escherichia coli and Salmonella typhimurium as an indicator of mutagenic activity. Bacterial strains were obtained from Molecular Toxicology (Boone, NC)."}, "in vivo": {"assay": "in vivo", "details": "male, Sprague-Dawley, rat, po", "method": "A repeated oral dose toxicity and separate toxicokinetics (TK) study were performed in male rats by WuXi AppTec Company (Suzhou, China). […] Animals were individually housed in solid bottom plastic cages with bedding in compliance with the US Animal Welfare Act. All rat studies were performed using ∼8-week-old Sprague-Dawley male rats (Rattus novegicus)/Crl: CD[SD] […] Cage side clinical observations of condition and behavior (i.e., gait, stool, activity level, atonia, coat soiling and grooming, skin turgor, posture, priapism, piloerection) were performed twice daily during the dosing phase, and weights and food consumption were measured daily. At termination, all study animals were evaluated for erythrocyte count, absolute reticulocyte count, alkaline phosphatase, and triglycerides by fasting the animals overnight and obtaining blood from the abdominal aorta at necropsy as a terminal procedure under deep anesthesia (pentobarbital). A complete necropsy and histopathologic studies (hematoxylin and eosin staining) of large intestine, small intestine, stomach, and any gross lesions were performed on all animals on day 7 of dosing. […] Serum was collected from vehicle-control animals at 1 h and 4 h after dosing on days 1 and 7. […] Following completion of blood collection, TK animals were euthanized by CO2 inhalation and exsanguination without necropsy."}},
  "note": "Several values for one entry are separate records, joined by “and”; a condition that tells them apart may be missing. Identical values can stand only once.",
  "data": [
    {"smiles": "CC1(C)OB(O)c2cc(NC(=O)c3ccc(-n4cccn4)cc3Cl)ccc21", "note": "[AN7973]", "values": [
      {"measurement": "CYP450 inhibition (in 6 isoforms – 2B6, 1A2, 2C9, 2C19, 2D6, 3A4)", "setting": "[1]", "value": "Negative"},
      {"measurement": "concentration giving maximum rate of parasite elimination", "setting": "[2]; Cryptosporidium parvum, HCT-8, read-out: concentration at which maximum rate of parasite elimination was achieved (∼3 × EC90)", "value": "~630", "unit": "nM"},
      {"measurement": "time-kill curve result", "setting": "[2]; compound added ~24 h after infection of HCT-8", "value": "appeared to act rapidly and drove progressive elimination of C. parvum"},
      {"measurement": "% Parasite / host nuclei", "setting": "[2]; compound at 3 x EC90, 0 h exposure", "value": "25.13% and 23.57% and 25.93% and 26.94%"},
      {"measurement": "% Parasite / host nuclei", "setting": "[2]; compound at 3 x EC90, 6 h exposure", "value": "24.78% and 34.35% and 30.89%"},
      {"measurement": "% Parasite / host nuclei", "setting": "[2]; compound at 3 x EC90, 24 h exposure", "value": "15.27% and 14.74% and 17.96% and 15.11%"},
      {"measurement": "% Parasite / host nuclei", "setting": "[2]; compound at 3 x EC90, 48 h exposure", "value": "20.76% and 12.39% and 18.77% and 13.91%"},
      {"measurement": "% Parasite / host nuclei", "setting": "[2]; compound at 3 x EC90, 72 h exposure", "value": "10.40% and 6.55% and 11.33% and 7.26%"},
      {"measurement": "% Parasite / host nuclei", "setting": "[2]; compound at 6 x EC90, 0 h exposure", "value": "26.94% and 25.13% and 23.57% and 25.93%"},
      {"measurement": "% Parasite / host nuclei", "setting": "[2]; compound at 6 x EC90, 6 h exposure", "value": "28.91% and 27.91% and 32.17% and 31.13%"},
      {"measurement": "% Parasite / host nuclei", "setting": "[2]; compound at 6 x EC90, 24 h exposure", "value": "21.47% and 14.00% and 13.65% and 12.46%"},
      {"measurement": "% Parasite / host nuclei", "setting": "[2]; compound at 6 x EC90, 48 h exposure", "value": "10.56% and 11.11% and 14.16% and 9.59%"},
      {"measurement": "% Parasite / host nuclei", "setting": "[2]; compound at 6 x EC90, 72 h exposure", "value": "5.25% and 6.00% and 13.91% and 10.57%"},
      {"measurement": "% Parasite / host nuclei", "setting": "[2]; compound at 9 x EC90, 0 h exposure", "value": "26.94% and 25.13% and 23.57% and 25.93%"},
      {"measurement": "% Parasite / host nuclei", "setting": "[2]; compound at 9 x EC90, 24 h exposure", "value": "14.18% and 12.40% and 14.28% and 11.31%"},
      {"measurement": "% Parasite / host nuclei", "setting": "[2]; compound at 9 x EC90, 48 h exposure", "value": "12.96% and 14.27% and 16.75% and 18.20%"},
      {"measurement": "% Parasite / host nuclei", "setting": "[2]; compound at 12 x EC90, 0 h exposure", "value": "26.94% and 25.13% and 23.57% and 25.93%"},
      {"measurement": "% Parasite / host nuclei", "setting": "[2]; compound at 12 x EC90, 24 h exposure", "value": "11.36% and 18.45% and 14.90% and 9.34%"},
      {"measurement": "% Parasite / host nuclei", "setting": "[2]; compound at 12 x EC90, 48 h exposure", "value": "10.50% and 12.64% and 5.47% and 10.46%"},
      {"measurement": "% Parasite / host nuclei", "setting": "[2]; compound at 12 x EC90, 72 h exposure", "value": "8.81% and 7.07% and 9.43% and 15.51%"},
      {"measurement": "% Parasite / host nuclei", "setting": "[2]; compound at EC50, 0 h exposure", "value": "26.94% and 25.13% and 23.57% and 25.93%"},
      {"measurement": "% Parasite / host nuclei", "setting": "[2]; compound at EC50, 6 h exposure", "value": 20.18, "unit": "%"},
      {"measurement": "% Parasite / host nuclei", "setting": "[2]; compound at EC50, 24 h exposure", "value": "55.77% and 58.71% and 35.00% and 58.88%"},
      {"measurement": "% Parasite / host nuclei", "setting": "[2]; compound at EC50, 48 h exposure", "value": "63.82% and 58.60% and 55.54% and 55.88%"},
      {"measurement": "% Parasite / host nuclei", "setting": "[2]; compound at EC50, 72 h exposure", "value": "29.51% and 58.62% and 41.28% and 34.71%"},
      {"measurement": "% Parasite / host nuclei", "setting": "[2]; compound at EC90, 0 h exposure", "value": "26.94% and 25.13% and 23.57% and 25.93%"},
      {"measurement": "% Parasite / host nuclei", "setting": "[2]; compound at EC90, 24 h exposure", "value": "31.22% and 39.05% and 28.47% and 33.72%"},
      {"measurement": "% Parasite / host nuclei", "setting": "[2]; compound at EC90, 48 h exposure", "value": "43.81% and 37.66% and 41.76% and 32.99%"},
      {"measurement": "% Parasite / host nuclei", "setting": "[2]; compound at EC90, 72 h exposure", "value": "28.05% and 29.96% and 37.03% and 23.24%"},
      {"measurement": "time required for 99.9% parasite reduction", "setting": "[2]; in vitro", "value": "~92", "unit": "h"},
      {"measurement": "in vitro parasite elimination half-life", "setting": "[2]; one-phase exponential decay, 12 × EC90, referenced to DMSO control", "value": "~9.2", "unit": "h"},
      {"measurement": "activity in C. parvum invasion assay", "setting": "[3]", "value": "no activity"},
      {"measurement": "fraction unbound", "setting": "[4]", "value": 0.04},
      {"measurement": "Ames test for mutagenic potential", "setting": "[5]", "value": "negative"},
      {"measurement": "NOAEL at 7 days", "setting": "in vivo", "value": "> 80", "unit": "mg/kg/day"}
    ]}
  ]
}
